The text below walks through data of patent US6344442B2, “Zona pellucida proteins for contraception” (Schering Aktiengesellschaft, priority 1996, dated 2002).

What all share (format): cell-based
The subject of one test is capacitated human sperm. The test can be described thus: Acrosome reaction in capacitated human sperm.
Test [1] relates to human zona pellucida (bonding of human sperm). Kind of test: Zona pellucida bonding test in humans (hemizona). Particulars: 4 hours at 37° C. The protocol: For the zona bonding test in humans, the ejaculate of normo-zoospermatocidal donor semen is prepared with use of SpermFertil^(R) glass wool columns (Mello Ltd., FRG). The filtrates were washed and resuspended in HFT-HSA (HFT=human tubal fluid medium according to Quinn et al., supplemented with 10 mg/ml of human serum albumin=HSA).
All human oocytes are obtained from post mortem material. Provision is made at all times to ensure that all legal, ethical and moral guidelines during the entire process are strictly followed.
Unless otherwise indicated, the oocytes are stored in 36.6 mmol of HEPES buffer, pH 7.4, which contains […] MgCl2 and 0.1% PVP at 4° C.
The experiments consist of three incubation drops that contain 10 μl of a standard HTF-HSA medium (see above) and 40 μl of working medium (see below). A specific number of oocytes (for TEM) or hemizonae for the bonding was added to each drop to ensure bonding. For the bonding experiments, a 10 μl sperm drop (50×10^6/ml) was added to each drop, covered with mineral oil, and incubated for 4 hours at 37° C. in 5% CO2. The statistical evaluation was done according to the non-parametric Mann-Whitney two-sample test.
Composition of the working medium: 20 μl of 5 mmol NaH2PO4 (adjusted with phosphoric acid), pH 2.5, plus 20 μl of a specially composed doubly-concentrated HTF-HSA medium, mixed at a ratio of 1:1 (vol/vol).
Composition of the doubly-concentrated HTF-HSA medium: […]

The subject of test [2] is mouse zona pellucida (bonding of mouse sperm). Kind of test: Zona pellucida bonding test in mice (sperm bonding to isolated zonae). Particulars: 20 sperm bonds per zona corresponds to 100%. The protocol:
(§1) To recover sperm, a mouse buck is sacrificed, and the two epididymal appendages are removed and transferred into the prepared small Petri dishes [see above under b)]. The tissue parts are cut in the medium, so that the sperm can escape. The sperm are capacitated for one hour in the incubator. After the capacitation time has been completed, the sperm are diluted 1:5 with BWW/0.3 BSA. For counting in the counting chamber, a 1:1 aliquot is diluted with doubly distilled H2O. The desired sperm concentration is 40,000-80,000/0.1 ml.
(§2) The animals are sacrificed 13 hours after the HCG injection, and the tubes are removed and transferred into the prepared small Petri dishes [see above under a)]. Pending further processing, the small dishes are kept at 37° C. on the warming plate. Under the stereomicroscope, the tubes that are in oil are pulled apart. In this case, the cumulus clouds pour out, which then are transferred into the prepared medium drops (two cumulus clouds per drop).
The sperm and oocytes are obtained as described in in vitro fertilization.
The oocytes that are obtained as under I.2.3. are taken up by a finely drawn Pasteur pipette, whose diameter must be somewhat smaller than the diameter of the oocytes, with a few μl of BWW medium. This process is repeated several times and finally causes the zonae pellucida to burst. The cytoplasmic portion of the ooctyes is released, and the isolated zona pellucida is collected for further tests and covered in 0.1 ml of BWW medium with equilibrated oil and kept at 37° C.
The capacitated mouse sperm (see I.2.2) are preincubated for 15 minutes either with a solvent or the desired substance, and then 0.1 ml drops are added to the isolated zonae pellucidae, in such a way that the incubation volume is a total of 0.2 ml (under oil). About 20 zonae pellucidae are studied per drop. The sperm concentration per drop is between 10,000 and 30,000 per μl. Sperm and zonae are incubated for 45 minutes in an incubator (see Description under I.2). After the incubation period, the number of bonded sperm per zona is evaluated under an inverse microscope. The upper limit of the sperm, which have yet to be counted exactly, is 20 sperm per zona pellucida under control conditions.
10,000 Sperm per 0.01 ml with 20 sperm bonds per zonae corresponds to 100%

The subject of test [3] is mouse oocytes and sperm (in vitro fertilization). The test can be described thus: Mouse in vitro fertilization. Particulars: 24 hours incubation.
Description: I. In Vitro Fertilization
In vitro fertilization represents a test system that makes possible a first review of a contraceptive effect of substances. In this case, the possibility exists of studying whether the contraceptive effect can be attributed primarily to an inhibition of the sperm function(s) or to an inhibiting effect on the oocytes, or to the two above-mentioned effects.
Fertile female mice (CB6F1 strain) about 12 weeks of age; fertile male mice (CB6F1 strain) at least 14 weeks of age.
c) 0.1 ml of BWW/0.3% BSA, corresponding to the concentrations that are to be tested, is mixed with or without substance (control) for the fertilization (prepared after removal of the tubes), covered with equilibrated oil, and kept at 37° C.
10 injection units of PMS/0.1 ml are injected intrapericutaneously into the approximately 12-week-old fertile mice, and 54 hours later, 10 injection units of HCG/0.1 ml are administered.
as §1, §2
0.1 ml of dilute sperma-defined concentration is added to the oocytes that are in the medium drops and is incubated for 24 hours in the incubator at 37° C.
After incubating for 24 hours in the incubator, the following parameters are computed:
The fertilization rate corresponds to the number of divided oocytes per total number of intact oocytes.

A further test deals with sperm. Kind of test: Sperm movement parameters.

For “Ac-CGTPSHSRRQPHVMS-NH2 [human ZPC (ZP3) peptide, residues 327-341]”, in the test with capacitated human sperm, the “triggering of the acrosome reaction” value is given as “do not trigger the acrosome reaction”. The “% Inhibition of Sperm Bonding (Human) to the Human Zona Pellucida” value (from here on “% Inhibition of Sperm Bonding (Human)”) in test [1] (1 μg/ml peptide) was determined as 45%; in test [1] (10 μg/ml peptide) it was 88%.
Regarding “Ac-QRPGHIQFQS-NH2 [Ac-QRPGHIQFQS-NH2 (reverse), reference compound]”, the “% Inhibition of Sperm Bonding (Mouse) to the Mouse Zona Pellucida” value (“% Inhibition of Sperm Bonding (Mouse)” below) in test [2] (1 μg/ml peptide) and in test [2] (10 μg/ml peptide) was 0% each time.
With Ac-SQFQIHGPRQ-NH2, the “% Inhibition of Mouse In Vitro Fertilization” value in test [3] (0.1 μg/ml peptide) came to 0%; in test [3] (1 μg/ml peptide), 63%; in test [3] (10 μg/ml peptide), 5%.
For the substance “NH2-RYPRQGNVSS-COOH (H-RYPRQGNVSS-OH) [human ZPC (ZP3) peptide, residues 141-150]”, the “% Inhibition of Sperm Bonding (Mouse)” value in test [2] (0.1 μg/ml peptide) is listed as 71%; in test [2] (10 μg/ml peptide) it was 89%; in test [2] (100 μg/ml peptide) it was 91%. Further, the “triggering of the acrosome reaction” value with capacitated human sperm was “do not trigger the acrosome reaction”. The “influence on parameters of the sperm movement” value in the test with sperm was “does not influence any parameters of the sperm movement”. In addition, the “% Inhibition of Sperm Bonding (Human)” value came to 76% in test [1] (1 μg/ml peptide) and 77% in test [1] (10 μg/ml peptide).
Consider NH2-SQFQIHGPRQ-COOH (H-SQFQIHGPRQ-OH), for which the “% Inhibition of Mouse In Vitro Fertilization” value in test [3] (0.1 μg/ml peptide) worked out at 52%; in test [3] (1 μg/ml peptide), 29%; in test [3] (10 μg/ml peptide), 1%. Also, the “% Inhibition of Sperm Bonding (Mouse)” value is reported as 61% in test [2] (1 μg/ml peptide) and 72% in test [2] (10 μg/ml peptide).
In the case of “NH2-SRNRRHVTEEADVT-COOH (H-SRNRRHVTEEADVT-OH) [human ZPC (ZP3) peptide, residues 348-361]”, the “% Inhibition of Sperm Bonding (Mouse)” value in test [2] (0.1 μg/ml peptide) came out at 69%; in test [2] (10 μg/ml peptide), 85%; in test [2] (100 μg/ml peptide) it was 82%. In addition, the “% Inhibition of Sperm Bonding (Human)” value in test [1] (1 μg/ml peptide) and in test [1] (10 μg/ml peptide) was 0% each time.
Take “NH2-TPT..PDQNASPY-COOH (H-TPTPDQNASPY-OH) [human ZPC (ZP3) peptide, residues 220-230]”: the results for the “% Inhibition of Sperm Bonding (Human)” value in test [1] (1 μg/ml peptide) and in test [1] (10 μg/ml peptide) were 0% and 18%, respectively.
For the substance “NH2-TRRCRTASHPVSASE-COOH (H-TRRCRTASHPVSASE-OH) [human ZPC (ZP3) peptide, residues 410-424]”, the “% Inhibition of Sperm Bonding (Mouse)” value in test [2] (0.1 μg/ml peptide) turned out to be 86%; in test [2] (10 μg/ml peptide), 87%. For the same substance, the entries for the “% Inhibition of Sperm Bonding (Human)” value in test [1] (1 μg/ml peptide) and in test [1] (10 μg/ml peptide) were 61% and 88%, respectively.
